{"source": "patent US8895585B2", "about": "“Nicotinamide derivative or salt thereof” (FUJIFILM Corporation, priority 2010, dated 2014)", "key": {"[1]": {"tested_on": "THP-1 cells", "assay": "TNFα generation assay", "assay_type": "cell-based, human", "conditions": "Homo sapiens, THP-1, THP-1 cells; Table 22; read-out: IC50 in TNFα generation assay", "method_in_brief": "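Secreted TNFα in supernatant quantified by ELISA or AlphaLISA after 7 h culture on human IgG-coated wells (10 μg/ml coating). Cells were IFN-γ-differentiated THP-1 (10 ng/ml, 2 days), exposed to compound for 30 min at room temperature before plating.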"}, "[2]": {"biological_target": "T1, glutathione S-transferase (GST)-fused full-length human Syk protein (Homo sapiens, UniProt P43405)", "T1 construct": "(GST)-fused full-length human Syk protein; GST (glutathione S-transferase); purchased Carna Biosciences", "assay": "Syk enzyme assay", "assay_type": "biochemical", "conditions": "Syk enzyme assay, Test Example 1; read-out: IC50 of Syk-inhibitory activity", "method_in_brief": "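IC50 values come from a time-resolved FRET readout (615 and 665 nm) of substrate phosphorylation, measured after an EDTA stop and 1 h antibody binding. The kinase reaction ran 40 min at room temperature with 27 μM ATP and 0.4 μM biotin-peptide, following a 15 min compound preincubation with baculovirus-made GST-full-length human Syk.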"}}, "data": [{"smiles": "Cc1nn(CCF)c2cc(Nc3nc(N[C@H](CC4CC4)[C@H](C)N)c(F)cc3C(N)=O)ccc12", "note": "[Example 006-488, 6-(((2R,3S)-3-amino-1-cyclopropylbutan-2-yl)amino)-5-fluoro-2-((1-(2-fluoroethyl)-3-methyl-1H-indazol-6-yl)amino)nicotinamide]", "values": [{"measurement": "IC50", "setting": "[1]", "result": "65 to 130", "unit": "nM"}, {"measurement": "IC50", "setting": "[2]", "result": "< 10", "unit": "nM"}]}, {"smiles": "Cc1nn(CC(F)F)c2cc(Nc3nc(N[C@H](CC4CC4)[C@H](C)N)c(F)cc3C(N)=O)ccc12", "note": "[Example 006-489, 6-(((2R,3S)-3-amino-1-cyclopropylbutan-2-yl)amino)-2-((1-(2,2-difluoroethyl)-3-methyl-1H-indazol-6-yl)amino)-5-fluoronicotinamide]", "values": [{"measurement": "IC50", "setting": "[1]", "result": "130 to 200", "unit": "nM"}, {"measurement": "IC50", "setting": "[2]", "result": "< 10", "unit": "nM"}]}, {"smiles": "COc1ncc(Nc2nc(N[C@@H]3CCCC[C@@H]3N)c(F)cc2C(N)=O)cc1-n1ccnn1", "note": "[Example 006-493, 6-(((1R,2S)-2-aminocyclohexyl)amino)-5-fluoro-2-((6-methoxy-5-(1H-1,2,3-triazol-1-yl)pyridin-3-yl)amino)nicotinamide]", "values": [{"measurement": "IC50", "setting": "[1]", "result": "130 to 200", "unit": "nM"}, {"measurement": "IC50", "setting": "[2]", "result": "10 to 50", "unit": "nM"}]}, {"smiles": "CCOc1ncc(Nc2nc(N[C@@H]3CCCC[C@@H]3N)c(F)cc2C(N)=O)cc1-n1cccn1", "note": "[Example 006-494, 6-(((1R,2S)-2-aminocyclohexyl)amino)-2-((6-ethoxy-5-(1H-pyrazol-1-yl)pyridin-3-yl)amino)-5-fluoronicotinamide]", "values": [{"measurement": "IC50", "setting": "[1]", "result": "130 to 200", "unit": "nM"}, {"measurement": "IC50", "setting": "[2]", "result": "10 to 50", "unit": "nM"}]}, {"smiles": "CCOc1ncc(Nc2nc(N[C@@H]3CCCC[C@@H]3N)c(F)cc2C(N)=O)cc1-n1nccn1", "note": "[Example 006-495, 6-(((1R,2S)-2-aminocyclohexyl)amino)-2-((6-ethoxy-5-(2H-1,2,3-triazol-2-yl)pyridin-3-yl)amino)-5-fluoronicotinamide]", "values": [{"measurement": "IC50", "setting": "[1]", "result": "130 to 200", "unit": "nM"}, {"measurement": "IC50", "setting": "[2]", "result": "< 10", "unit": "nM"}]}, {"smiles": "CCOc1ncc(Nc2nc(N[C@@H]3CCCC[C@@H]3N)c(F)cc2C(N)=O)cc1-n1ccnn1", "note": "[Example 006-496, 6-(((1R,2S)-2-aminocyclohexyl)amino)-2-((6-ethoxy-5-(1H-1,2,3-triazol-1-yl)pyridin-3-yl)amino)-5-fluoronicotinamide]", "values": [{"measurement": "IC50", "setting": "[1]", "result": "65 to 130", "unit": "nM"}, {"measurement": "IC50", "setting": "[2]", "result": "< 10", "unit": "nM"}]}, {"smiles": "CCOc1ncc(Nc2nc(N[C@@H]3CCCC[C@@H]3N)c(F)cc2C(N)=O)cc1C", "note": "[Example 006-497, 6-(((1R,2S)-2-aminocyclohexyl)amino)-2-((6-ethoxy-5-methylpyridin-3-yl)amino)-5-fluoronicotinamide]", "values": [{"measurement": "IC50", "setting": "[1]", "result": "65 to 130", "unit": "nM"}, {"measurement": "IC50", "setting": "[2]", "result": "< 10", "unit": "nM"}]}, {"smiles": "COCCOc1ncc(Nc2nc(N[C@@H]3CCCC[C@@H]3N)c(F)cc2C(N)=O)cc1C", "note": "[Example 006-498, 6-(((1R,2S)-2-aminocyclohexyl)amino)-5-fluoro-2-((6-(2-methoxyethoxy)-5-methylpyridin-3-yl)amino)nicotinamide]", "values": [{"measurement": "IC50", "setting": "[1]", "result": "65 to 130", "unit": "nM"}, {"measurement": "IC50", "setting": "[2]", "result": "< 10", "unit": "nM"}]}, {"smiles": "Cc1cc(Nc2nc(N[C@@H]3CCCC[C@@H]3N)c(F)cc2C(N)=O)cnc1-n1cccn1", "note": "[Example 006-499, 6-(((1R,2S)-2-aminocyclohexyl)amino)-5-fluoro-2-((5-methyl-6-(1H-pyrazol-1-yl)pyridin-3-yl)amino)nicotinamide]", "values": [{"measurement": "IC50", "setting": "[1]", "result": "130 to 200", "unit": "nM"}, {"measurement": "IC50", "setting": "[2]", "result": "10 to 50", "unit": "nM"}]}, {"smiles": "Cc1cc(Nc2nc(N[C@@H]3CCCC[C@@H]3N)c(F)cc2C(N)=O)cnc1-n1nccn1", "note": "[Example 006-500, 6-(((1R,2S)-2-aminocyclohexyl)amino)-5-fluoro-2-((5-methyl-6-(2H-1,2,3-triazol-2-yl)pyridin-3-yl)amino)nicotinamide]", "values": [{"measurement": "IC50", "setting": "[1]", "result": "65 to 130", "unit": "nM"}, {"measurement": "IC50", "setting": "[2]", "result": "10 to 50", "unit": "nM"}]}, {"smiles": "Cc1cc(Nc2nc(N[C@@H]3CCCC[C@@H]3N)c(F)cc2C(N)=O)cnc1-n1ccnn1", "note": "[Example 006-501, 6-(((1R,2S)-2-aminocyclohexyl)amino)-5-fluoro-2-((5-methyl-6-(1H-1,2,3-triazol-1-yl)pyridin-3-yl)amino)nicotinamide]", "values": [{"measurement": "IC50", "setting": "[1]", "result": "130 to 200", "unit": "nM"}, {"measurement": "IC50", "setting": "[2]", "result": "10 to 50", "unit": "nM"}]}, {"smiles": "CCc1ncc(Nc2nc(N[C@@H]3CCCC[C@@H]3N)c(F)cc2C(N)=O)cc1C", "note": "[Example 006-502, 6-(((1R,2S)-2-aminocyclohexyl)amino)-2-((6-ethyl-5-methylpyridin-3-yl)amino)-5-fluoronicotinamide]", "values": [{"measurement": "IC50", "setting": "[1]", "result": "65 to 130", "unit": "nM"}, {"measurement": "IC50", "setting": "[2]", "result": "< 10", "unit": "nM"}]}, {"smiles": "Cc1cc(Nc2nc(N[C@@H]3CCCC[C@@H]3N)c(F)cc2C(N)=O)cnc1C1CC1", "note": "[Example 006-503, 6-(((1R,2S)-2-aminocyclohexyl)amino)-2-((6-cyclopropyl-5-methylpyridin-3-yl)amino)-5-fluoronicotinamide]", "values": [{"measurement": "IC50", "setting": "[1]", "result": "65 to 130", "unit": "nM"}, {"measurement": "IC50", "setting": "[2]", "result": "< 10", "unit": "nM"}]}, {"smiles": "CCc1nn(C)c2ccc(Nc3nc(N[C@H](CC4CC4)[C@H](C)N)c(F)cc3C(N)=O)cc12", "note": "[Example 006-505, 6-(((2R,3S)-3-amino-1-cyclopropylbutan-2-yl)amino)-2-((3-ethyl-1-methyl-1H-indazol-5-yl)amino)-5-fluoronicotinamide]", "values": [{"measurement": "IC50", "setting": "[1]", "result": "130 to 200", "unit": "nM"}, {"measurement": "IC50", "setting": "[2]", "result": "< 10", "unit": "nM"}]}, {"smiles": "CCc1nn(CC)c2ccc(Nc3nc(N[C@H](CC4CC4)[C@H](C)N)c(F)cc3C(N)=O)cc12", "note": "[Example 006-506, 6-(((2R,3S)-3-amino-1-cyclopropylbutan-2-yl)amino)-2-((1,3-diethyl-1H-indazol-5-yl)amino)-5-fluoronicotinamide]", "values": [{"measurement": "IC50", "setting": "[1]", "result": "130 to 200", "unit": "nM"}, {"measurement": "IC50", "setting": "[2]", "result": "< 10", "unit": "nM"}]}, {"smiles": "CC(C)c1nn(C)c2ccc(Nc3nc(N[C@H](CC4CC4)[C@H](C)N)c(F)cc3C(N)=O)cc12", "note": "[Example 006-507, 6-(((2R,3S)-3-amino-1-cyclopropylbutan-2-yl)amino)-5-fluoro-2-((3-isopropyl-1-methyl-1H-indazol-5-yl)amino)nicotinamide]", "values": [{"measurement": "IC50", "setting": "[1]", "result": "130 to 200", "unit": "nM"}, {"measurement": "IC50", "setting": "[2]", "result": "< 10", "unit": "nM"}]}, {"smiles": "CCn1ncc2c(Nc3nc(N[C@H](CC4CC4)[C@H](C)N)c(F)cc3C(N)=O)cccc21", "note": "[Example 006-508, 6-(((2R,3S)-3-amino-1-cyclopropylbutan-2-yl)amino)-2-((1-ethyl-1H-indazol-4-yl)amino)-5-fluoronicotinamide]", "values": [{"measurement": "IC50", "setting": "[1]", "result": "65 to 130", "unit": "nM"}, {"measurement": "IC50", "setting": "[2]", "result": "< 10", "unit": "nM"}]}, {"smiles": "CCn1nc(F)c2cc(Nc3nc(N[C@H](CC4CC4)[C@H](C)N)c(F)cc3C(N)=O)ccc21", "note": "[Example 006-509, 6-(((2R,3S)-3-amino-1-cyclopropylbutan-2-yl)amino)-2-((1-ethyl-3-fluoro-1H-indazol-5-yl)amino)-5-fluoronicotinamide]", "values": [{"measurement": "IC50", "setting": "[1]", "result": "65 to 130", "unit": "nM"}, {"measurement": "IC50", "setting": "[2]", "result": "< 10", "unit": "nM"}]}, {"smiles": "C[C@H](N)[C@@H](CC1CC1)Nc1nc(Nc2ccc3c(c2)c(F)nn3CC(F)F)c(C(N)=O)cc1F", "note": "[Example 006-510, 6-(((2R,3S)-3-amino-1-cyclopropylbutan-2-yl)amino)-2-((1-(2,2-difluoroethyl)-3-fluoro-1H-indazol-5-yl)amino)-5-fluoronicotinamide]", "values": [{"measurement": "IC50", "setting": "[1]", "result": "65 to 130", "unit": "nM"}, {"measurement": "IC50", "setting": "[2]", "result": "< 10", "unit": "nM"}]}, {"smiles": "CC(C)C[C@@H](Nc1nc(Nc2ccc3c(c2)c(F)nn3C)c(C(N)=O)cc1F)[C@H](C)N", "note": "[Example 006-511, 6-(((2S,3R)-2-amino-5-methylhexan-3-yl)amino)-5-fluoro-2-((3-fluoro-1-methyl-1H-indazol-5-yl)amino)nicotinamide]", "values": [{"measurement": "IC50", "setting": "[1]", "result": "< 65", "unit": "nM"}, {"measurement": "IC50", "setting": "[2]", "result": "< 10", "unit": "nM"}]}, {"smiles": "CCn1nc(F)c2cc(Nc3nc(N[C@H](CC(C)C)[C@H](C)N)c(F)cc3C(N)=O)ccc21", "note": "[Example 006-512, 6-(((2S,3R)-2-amino-5-methylhexan-3-yl)amino)-2-((1-ethyl-3-fluoro-1H-indazol-5-yl)amino)-5-fluoronicotinamide]", "values": [{"measurement": "IC50", "setting": "[1]", "result": "65 to 130", "unit": "nM"}, {"measurement": "IC50", "setting": "[2]", "result": "< 10", "unit": "nM"}]}]}
